Assay results: US11905324B2, “Fluorescent fusion polypeptide capable of detecting phosphorylation of cellular membrane receptors by GRKs (G-protein receptor kinases) and/or receptor tyrosine kinases (RTKs)” (Innovative Technologies in Biological Systems SL, priority 2017, dated 2024)

Target: T1, NK1 receptor (Homo sapiens, UniProt P25103)
T1 construct: expressed in transfected cells
Test: NK1-Red ß-ARRNomad biosensor cell line inhibition assay (co-treatment with Substance P)
Assay type: cell-based
Conditions: co-treated with Substance P 100 nM, 24 h, BD PATHWAY 855; read-out: Ic50 (inhibition of NK1 receptor, biosensor change of localization)
Procedure: The Ic50 for L733,060 was Approx. 1.84×10^−7M after a treatment of 24 h with the agonist.

T1 sequence (P25103 whole entry, species assumed): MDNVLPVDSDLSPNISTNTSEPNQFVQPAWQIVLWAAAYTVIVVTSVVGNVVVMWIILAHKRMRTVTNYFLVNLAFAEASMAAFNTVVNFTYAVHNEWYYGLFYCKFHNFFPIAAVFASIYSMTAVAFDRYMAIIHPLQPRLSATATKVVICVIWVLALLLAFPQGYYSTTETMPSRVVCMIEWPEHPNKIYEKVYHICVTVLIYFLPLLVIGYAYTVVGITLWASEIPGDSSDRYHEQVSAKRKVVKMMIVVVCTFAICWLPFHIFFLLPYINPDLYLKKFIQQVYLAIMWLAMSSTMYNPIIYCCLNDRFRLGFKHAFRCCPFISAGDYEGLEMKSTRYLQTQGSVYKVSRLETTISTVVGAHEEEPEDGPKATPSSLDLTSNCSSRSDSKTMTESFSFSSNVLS

With FC(F)(F)c1cc(CO[C@H]2CCCN[C@H]2c2ccccc2)cc(C(F)(F)F)c1 [L733,060] the IC50 was roughly 0.184 µM.
